Measurements: patent US20210255193A1, “LYSINE REACTIVE PROBES AND USES THEREOF” (The Scripps Research Institute, priority 2017, published 2021)

Assays:
Test in all cases: competitive isoTOP-ABPP
Assay type in all cases: binding
[1] = molecular target: T1, RPS10 40S ribosomal protein S10 (Homo sapiens, UniProt P46783); conditions: 50 uM, in vitro; for isoTOP-ABPP ratio (R) at liganded lysine P46783_K139: sol, 231; for isoTOP-ABPP reactivity ratio at lysine P46783_K139 / R value (DMSO/fragment) for probe 1 labeling: 231 sol; for R value (DMSO/fragment) for probe 1 labeling: P46783_K139
T1 construct: isoTOP-ABPP experiments performed in cell lysates (in vitro); endogenous in cells; host or cells: soluble proteome of human cancer cell lines (MDA-MB-231; Ramos and Jurkat also prepared)
Method in brief: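 Cell lysate (0.5 ml) was pre-treated with fragment, 50 μM for activated esters or 100 μM for guanidinylating agents, versus DMSO, then labeled 1 h at ambient temperature with 0.1 mM STP-alkyne. Light/heavy TEV tags attached by CuAAC; R = DMSO/compound MS1 peak-area ratio, median per lysine.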

[2] = molecular target: T2, SRP54 Signal recognition particle 54 kDa protein (Homo sapiens, UniProt P61011); design: key to isoTOP-ABPP reactivity ratio at lysine P61011_K81: R = MS1 peak area ratio, DMSO (heavy) / compound-treated (light); capped at 20; conditions: 50 uM, in vitro; for isoTOP-ABPP ratio (R) at liganded lysine P61011_K81: sol, 231
T2 construct: isoTOP-ABPP experiments performed in cell lysates (in vitro); endogenous in cells; host or cells: soluble proteome of human cancer cell lines (MDA-MB-231, Ramos, Jurkat)
Experimental: (§1) In vitro covalent fragment treatment for isoTOP-ABPP. All compounds were made up as solutions in DMSO (100×) and were used at a final concentration of 50 μM for activated esters and 100 μM for guanidinylating agents. For each profiling sample, 0.5 ml of lysate was treated with 5 μl of the 100× compound stock solution or 5 μl of DMSO. Samples were treated with activated esters for
(§2) STP-alkyne labeling and click chemistry. For concentration-dependent reactivity measurements by isoTOP-ABPP, 0.5 ml proteome aliquots were treated at ambient temperature with 1 mM STP-alkyne 1 (5 μl of 100 mM stock in DMSO) and 0.1 mM STP alkyne 1 (5 μl of 10 mM stock in DMSO), respectively. For competitive isoTOP-ABPP, after in vitro fragment treatment (detailed above), the samples were labeled for 1 h at ambient temperature with 0.1 mM STP-alkyne 1 (5 μl of 10 mM stock in DMSO). Samples were conjugated by copper-mediated azide-alkyne cycloaddition (CuAAC) to either the light (1 mM STP-alkyne or fragment treated) or heavy (0.1 mM STP-alkyne or DMSO treated) TEV tags (10 μl of 5 mM stocks in DMSO, final concentration=100 μM) using tris(2-carboxyethyl)phosphine hydrochloride
(§3) R value calculation and processing. The ratios of light and heavy MS1 peaks for each unique peptide were quantified with a CIMAGE software using default parameters (3 MS1 acquisitions per peak and signal to noise threshold set to 2.5). For reactivity measurements by isoTOP-ABPP, the R value was calculated from the ratio of MS1 peak areas, comparing the 1 mM STP alkyne sample (light TEV tag) with the 0.1 mM STP alkyne sample (heavy TEV tag). For competitive isoTOP-ABPP, the R value was calculated from the ratio of MS1 peak areas, comparing the DMSO treated sample (heavy TEV tag) with the compound treated sample (light TEV tag). […] Ratios for unique peptide entries are calculated for each experiment; overlapping peptides with the same modified lysine (for example, different charge states, MudPIT chromatographic steps or tryptic termini) are grouped together and the median ratio is reported as the final ratio (R). The peptide ratios reported by CIMAGE were further filtered to ensure the removal or correction of low-quality ratios in each individual data set. The quality filters applied were the following: removal of half tryptic peptides; for ratios with high standard deviations from the median (90% of the median or above) the lowest ratio was taken instead of the median; removal of peptides with R=20 and only a single MS2 event triggered during the elution of the parent ion; manual annotation of all the peptides with ratios of 20, removing any peptides with low quality elution profiles that remained after the previous curation steps (only done for competitive isoTOP-ABPP).
(§4) Cross-data processing for fragment screening. For compound treated samples, biological replicates of the same condition were averaged, if the standard deviation was below 60% of the mean; otherwise, for lysines with at least one R value <4 for a particular compound, the lowest value of the ratio set was taken. For lysines, where all R values for a particular compound were ≥4, the average was reported. For peptides containing several possible modified lysines, the lysine with the highest number of quantification events was used for analysis and the remaining, redundant peptides were reported as alternative modification sites. Peptides included in the aggregate dataset (those used for further bioinformatics and statistical analyses) were required to have been quantified in 2 experiments for competitive isoTOP-ABPP. Lysines were categorized as liganded, if they had at least one ratio R≥4 (hit fragments). For liganded lysines with R=20 for all liganding events, lysines were required to have been quantified with R=20 in two separate experiments and were further required to have been quantified with R<20 in one additional experiment.

[3] = molecular target: T3, PSME3 Proteasome activator complex subunit 3 (Homo sapiens, UniProt P61289); design: key to isoTOP-ABPP reactivity ratio at lysine P61289_K237: R = MS1 peak area ratio, DMSO (heavy) / compound-treated (light); key to isoTOP-ABPP reactivity ratio at lysine P61289_K12: R = MS1 peak area ratio, DMSO (heavy) / compound-treated (light); capped at 20; conditions: 50 uM, in vitro; for isoTOP-ABPP reactivity ratio at lysine P61289_K12 / isoTOP-ABPP reactivity ratio at lysine P61289_K237 / R value (DMSO/fragment) for probe 1 labeling: 231 sol
T3 construct: isoTOP-ABPP experiments performed in cell lysates (in vitro); endogenous in cells; host or cells: soluble proteome of human cancer cell lines (MDA-MB-231, Ramos, Jurkat)
Experimental: as §1, §2, §3, §4

[4] = molecular target: T4, ACBD3 Golgi resident protein GCP60 (Homo sapiens, UniProt Q9H3P7); design: key to isoTOP-ABPP reactivity ratio at lysine Q9H3P7_K117: R = MS1 peak area ratio, DMSO (heavy) / compound-treated (light); conditions: 50 uM, in vitro; for isoTOP-ABPP ratio (R) at liganded lysine Q9H3P7_K117: sol, 231; for isoTOP-ABPP reactivity ratio at lysine Q9H3P7_K117 / R value (DMSO/fragment) for probe 1 labeling: 231 sol; for R value (DMSO/fragment) for probe 1 labeling: Q9H3P7_K117
T4 construct: isoTOP-ABPP experiments performed in cell lysates (in vitro); endogenous in cells; host or cells: soluble proteome of human cancer cell lines (MDA-MB-231; Ramos and Jurkat also prepared)
T4 sequence (Q9H3P7 1-528): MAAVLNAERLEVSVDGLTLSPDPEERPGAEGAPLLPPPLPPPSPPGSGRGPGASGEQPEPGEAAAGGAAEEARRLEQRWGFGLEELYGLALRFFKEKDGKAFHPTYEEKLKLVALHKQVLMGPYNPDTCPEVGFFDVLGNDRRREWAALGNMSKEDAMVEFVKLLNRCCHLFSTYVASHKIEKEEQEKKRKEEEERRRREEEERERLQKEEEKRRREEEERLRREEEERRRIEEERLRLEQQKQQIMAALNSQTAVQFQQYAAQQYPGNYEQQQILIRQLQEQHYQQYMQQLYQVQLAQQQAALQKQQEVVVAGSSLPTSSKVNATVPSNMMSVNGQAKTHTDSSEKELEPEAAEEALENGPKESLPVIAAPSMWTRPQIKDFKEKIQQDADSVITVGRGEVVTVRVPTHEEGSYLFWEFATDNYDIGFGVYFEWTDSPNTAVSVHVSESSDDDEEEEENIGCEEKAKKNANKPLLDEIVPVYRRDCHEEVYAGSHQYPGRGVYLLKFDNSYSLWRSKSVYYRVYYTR
Experimental: as §1, §2, §3, §4

T2 sequence (P61011 whole entry): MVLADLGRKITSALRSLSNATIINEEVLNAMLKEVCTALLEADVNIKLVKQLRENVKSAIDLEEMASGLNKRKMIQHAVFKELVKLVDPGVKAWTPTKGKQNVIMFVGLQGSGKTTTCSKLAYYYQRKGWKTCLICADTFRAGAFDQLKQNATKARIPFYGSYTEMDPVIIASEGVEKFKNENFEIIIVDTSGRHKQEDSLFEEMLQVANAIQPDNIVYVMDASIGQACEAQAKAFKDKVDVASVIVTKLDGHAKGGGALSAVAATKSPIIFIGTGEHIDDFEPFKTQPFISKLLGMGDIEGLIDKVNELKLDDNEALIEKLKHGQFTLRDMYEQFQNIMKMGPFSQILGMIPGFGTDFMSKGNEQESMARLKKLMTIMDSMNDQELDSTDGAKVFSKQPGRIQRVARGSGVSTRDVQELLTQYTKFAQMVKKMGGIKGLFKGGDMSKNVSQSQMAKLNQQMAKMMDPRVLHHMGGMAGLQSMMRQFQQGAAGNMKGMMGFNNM
T3 sequence (P61289 whole entry, the tested form may be a part, one chain of several): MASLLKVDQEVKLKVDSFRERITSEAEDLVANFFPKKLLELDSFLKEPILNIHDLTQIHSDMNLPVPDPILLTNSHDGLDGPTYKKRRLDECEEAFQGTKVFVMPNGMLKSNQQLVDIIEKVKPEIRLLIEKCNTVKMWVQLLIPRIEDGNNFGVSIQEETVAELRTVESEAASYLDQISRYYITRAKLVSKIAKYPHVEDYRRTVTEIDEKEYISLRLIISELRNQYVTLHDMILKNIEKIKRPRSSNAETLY

O=C(CCc1coc2cc(F)ccc2c1=O)Oc1ccc([N+](=O)[O-])cc1[N+](=O)[O-] [fragment 36, 2,4-Dinitrophenyl 3-(7-fluoro-4-oxo-4H-chromen-3-yl)propanoate]
isoTOP-ABPP ratio (R) at liganded lysine P46783_K139 [1]: 0.7 | isoTOP-ABPP ratio (R) at liganded lysine P61011_K81 [2]: 1.3 | isoTOP-ABPP ratio (R) at liganded lysine P61289_K237 ([3]; sol, 231): 1.4 | isoTOP-ABPP ratio (R) at liganded lysine Q9H3P7_K117 [4]: 1.4

O=C(Oc1ccc([N+](=O)[O-])cc1[N+](=O)[O-])C(c1ccccc1)(c1ccccc1)c1ccccc1 [fragment 42, 2,4-Dinitrophenyl 2,2,2-triphenylacetate]
isoTOP-ABPP ratio (R) at liganded lysine P46783_K139 [1]: 1.0 | isoTOP-ABPP ratio (R) at liganded lysine P61011_K81 [2]: 0.9 | isoTOP-ABPP ratio (R) at liganded lysine P61289_K12 ([3]; sol, 231): 0.9 | isoTOP-ABPP ratio (R) at liganded lysine P61289_K237 ([3]; sol, 231): 0.9 | isoTOP-ABPP ratio (R) at liganded lysine Q9H3P7_K117 [4]: 1.0

O=C(CCc1coc2cc(F)ccc2c1=O)Oc1c(F)c(F)c(F)c(F)c1F [fragment 26, Pentafluorophenyl 3-(7-fluoro-4-oxo-4H-chromen-3-yl)propanoate]
isoTOP-ABPP reactivity ratio at lysine P46783_K139 [1]: 1.0 | isoTOP-ABPP reactivity ratio at lysine P61011_K81 ([2]; 231 sol): 1.0 | isoTOP-ABPP reactivity ratio at lysine P61289_K12 [3]: 0.9 | isoTOP-ABPP reactivity ratio at lysine P61289_K237 [3]: 1.1 | isoTOP-ABPP reactivity ratio at lysine Q9H3P7_K117 [4]: 1.8

Cn1cc(CC(=O)Oc2c(F)c(F)c(F)c(F)c2F)c2ccccc21 [fragment 22, Pentafluorophenyl 2-(1-methyl-1H-indol-3-yl)acetate]
R value (DMSO/fragment) for probe 1 labeling [1]: 0.9 | R value (DMSO/fragment) for probe 1 labeling ([2]; P61011_K81, 231 sol): 0.9 | R value (DMSO/fragment) for probe 1 labeling ([3]; P61289_K12): 0.9 | R value (DMSO/fragment) for probe 1 labeling ([3]; P61289_K237): 1.1 | R value (DMSO/fragment) for probe 1 labeling [4]: 1.2

O=C(CCc1cn(-c2ccccc2)nc1-c1ccccc1)Oc1c(F)c(F)c(F)c(F)c1F [fragment 19, Pentafluorophenyl 3-(1,3-diphenyl-1H-pyrazol-4-yl)propanoate]
R value (DMSO/fragment) for probe 1 labeling [1]: 1.0 | R value (DMSO/fragment) for probe 1 labeling ([3]; P61289_K12): 1.0 | R value (DMSO/fragment) for probe 1 labeling ([3]; P61289_K237): 0.2 | R value (DMSO/fragment) for probe 1 labeling [4]: 1.0

COc1cc(CCC(=O)Oc2ccc([N+](=O)[O-])cc2[N+](=O)[O-])cc(OC)c1OC [fragment 33, 2,4-Dinitrophenyl 3-(3,4,5-trimethoxyphenyl)propanoate]
isoTOP-ABPP reactivity ratio at lysine P46783_K139 [1]: 0.7 | isoTOP-ABPP reactivity ratio at lysine P61011_K81 ([2]; 231 sol): 1.3 | isoTOP-ABPP reactivity ratio at lysine P61289_K12 [3]: 2.1 | isoTOP-ABPP reactivity ratio at lysine P61289_K237 [3]: 1.1 | isoTOP-ABPP reactivity ratio at lysine Q9H3P7_K117 [4]: 1.1

O=C(Oc1ccc([N+](=O)[O-])cc1[N+](=O)[O-])C(c1ccccc1)c1ccccc1 [fragment 30, 2,4-Dinitrophenyl 2,2-diphenylacetate]
isoTOP-ABPP reactivity ratio at lysine P46783_K139 [1]: 1.2 | isoTOP-ABPP reactivity ratio at lysine P61011_K81 ([2]; 231 sol): 20.0 | isoTOP-ABPP reactivity ratio at lysine P61289_K237 [3]: 4.3 | isoTOP-ABPP reactivity ratio at lysine Q9H3P7_K117 [4]: 1.7
